# Patent US20230017045A1, “PYRIDINE AND PYRIMIDINE CARBOXYLATE HERBICIDES AND METHODS OF USE THEREOF” (Dow AgroSciences LLC, priority 2017, published 2023)
# Tested on: test plant species
# Assay: Post-emergent herbicidal activity test (greenhouse, foliar spray, visual growth reduction)
# Assay type: in vivo
# Conditions: post-emergence, 336 h, ECHCG: barnyardgrass (Echinochloa crus-galli), 140 g ai/ha, 14 days after application, read-out: Visual Growth Reduction (%) 14 Days After Application, ECHCG
# In short: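 Greenhouse plants at first–second true leaf stage sprayed overhead at 187 L/ha with compound in acetone/water/isopropanol/DMSO/crop oil/X-77 carrier; controls received solvent blank. Injury rated visually after 14 d on a 0–100% scale versus untreated and control plants, converted to growth reduction.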
row,SMILES,pest or weed control at 140 g/ha [%]
1,"COC(=O)c1nc(-c2cc(N)c(C(F)(F)F)cc2Cl)ccc1Cl [F211, methyl 6-(5-amino-2-chloro-4-(trifluoromethyl)phenyl)-3-chloropicolinate]",60 to 74
2,"O=C(O)c1nc(-c2cc(F)c3c(c2)OC(F)(F)O3)ccc1Cl [F368, 3-Chloro-6-(2,2,7-trifluorobenzo[d][1,3]dioxol-5-yl)picolinic acid]",0 to 29
3,"COC(=O)c1nc(-c2ccc(F)cc2)c(F)cc1Cl [F227, Methyl 3-chloro-5-fluoro-6-(4-fluorophenyl) picolinate]",0 to 29

# Same assay, conditions: post-emergence, 336 h, IPOHE: ivy-leaf morning glory (Ipomoea hederacea), 140 g ai/ha, 14 days after application, read-out: Visual Growth Reduction (%) 14 Days After Application, IPOHE
row,SMILES,pest or weed control at 140 g/ha [%]
1,"COC(=O)c1nc(-c2cc(N)c(C(F)(F)F)cc2Cl)ccc1Cl [F211, methyl 6-(5-amino-2-chloro-4-(trifluoromethyl)phenyl)-3-chloropicolinate]",95 to 100
2,"O=C(O)c1nc(-c2cc(F)c3c(c2)OC(F)(F)O3)ccc1Cl [F368, 3-Chloro-6-(2,2,7-trifluorobenzo[d][1,3]dioxol-5-yl)picolinic acid]",95 to 100
3,"COC(=O)c1nc(-c2ccc(F)cc2)c(F)cc1Cl [F227, Methyl 3-chloro-5-fluoro-6-(4-fluorophenyl) picolinate]",60 to 74

# Same assay, conditions: post-emergence, 336 h, KCHSC: kochia (Bassia scoparia), 140 g ai/ha, 14 days after application, read-out: Visual Growth Reduction (%) 14 Days After Application, KCHSC
row,SMILES,pest or weed control at 140 g/ha [%]
1,"COC(=O)c1nc(-c2cc(N)c(C(F)(F)F)cc2Cl)ccc1Cl [F211, methyl 6-(5-amino-2-chloro-4-(trifluoromethyl)phenyl)-3-chloropicolinate]",75 to 84
2,"O=C(O)c1nc(-c2cc(F)c3c(c2)OC(F)(F)O3)ccc1Cl [F368, 3-Chloro-6-(2,2,7-trifluorobenzo[d][1,3]dioxol-5-yl)picolinic acid]",0 to 29
3,"COC(=O)c1nc(-c2ccc(F)cc2)c(F)cc1Cl [F227, Methyl 3-chloro-5-fluoro-6-(4-fluorophenyl) picolinate]",0 to 29

# Same assay, conditions: post-emergence, 336 h, ORYSA: rice (Oryza sativa), 140 g ai/ha, 14 days after application, read-out: Visual Growth Reduction (%) 14 Days After Application, ORYSA
row,SMILES,pest or weed control at 140 g/ha [%]
1,"COC(=O)c1nc(-c2cc(N)c(C(F)(F)F)cc2Cl)ccc1Cl [F211, methyl 6-(5-amino-2-chloro-4-(trifluoromethyl)phenyl)-3-chloropicolinate]",0 to 29
2,"O=C(O)c1nc(-c2cc(F)c3c(c2)OC(F)(F)O3)ccc1Cl [F368, 3-Chloro-6-(2,2,7-trifluorobenzo[d][1,3]dioxol-5-yl)picolinic acid]",0 to 29
3,"COC(=O)c1nc(-c2ccc(F)cc2)c(F)cc1Cl [F227, Methyl 3-chloro-5-fluoro-6-(4-fluorophenyl) picolinate]",0 to 29

# Same assay, conditions: post-emergence, 336 h, SETFA: giant foxtail (Setaria faberi), 140 g ai/ha, 14 days after application, read-out: Visual Growth Reduction (%) 14 Days After Application, SETFA
row,SMILES,pest or weed control at 140 g/ha [%]
1,"COC(=O)c1nc(-c2cc(N)c(C(F)(F)F)cc2Cl)ccc1Cl [F211, methyl 6-(5-amino-2-chloro-4-(trifluoromethyl)phenyl)-3-chloropicolinate]",45 to 59
2,"O=C(O)c1nc(-c2cc(F)c3c(c2)OC(F)(F)O3)ccc1Cl [F368, 3-Chloro-6-(2,2,7-trifluorobenzo[d][1,3]dioxol-5-yl)picolinic acid]",45 to 59
3,"COC(=O)c1nc(-c2ccc(F)cc2)c(F)cc1Cl [F227, Methyl 3-chloro-5-fluoro-6-(4-fluorophenyl) picolinate]",0 to 29

# Same assay, conditions: post-emergence, 336 h, SORVU: grain sorghum (Sorghum vulgare), 140 g ai/ha, 14 days after application, read-out: Visual Growth Reduction (%) 14 Days After Application, SORVU
row,SMILES,pest or weed control at 140 g/ha [%]
1,"COC(=O)c1nc(-c2cc(N)c(C(F)(F)F)cc2Cl)ccc1Cl [F211, methyl 6-(5-amino-2-chloro-4-(trifluoromethyl)phenyl)-3-chloropicolinate]",60 to 74
2,"O=C(O)c1nc(-c2cc(F)c3c(c2)OC(F)(F)O3)ccc1Cl [F368, 3-Chloro-6-(2,2,7-trifluorobenzo[d][1,3]dioxol-5-yl)picolinic acid]",75 to 84
3,"COC(=O)c1nc(-c2ccc(F)cc2)c(F)cc1Cl [F227, Methyl 3-chloro-5-fluoro-6-(4-fluorophenyl) picolinate]",60 to 74

# Same assay, conditions: post-emergence, 336 h, STEME: common chickweed (Stellaria media), 140 g ai/ha, 14 days after application, read-out: Visual Growth Reduction (%) 14 Days After Application, STEME
row,SMILES,pest or weed control at 140 g/ha [%]
1,"COC(=O)c1nc(-c2cc(N)c(C(F)(F)F)cc2Cl)ccc1Cl [F211, methyl 6-(5-amino-2-chloro-4-(trifluoromethyl)phenyl)-3-chloropicolinate]",0 to 29
2,"O=C(O)c1nc(-c2cc(F)c3c(c2)OC(F)(F)O3)ccc1Cl [F368, 3-Chloro-6-(2,2,7-trifluorobenzo[d][1,3]dioxol-5-yl)picolinic acid]",0 to 29
3,"COC(=O)c1nc(-c2ccc(F)cc2)c(F)cc1Cl [F227, Methyl 3-chloro-5-fluoro-6-(4-fluorophenyl) picolinate]",0 to 29

# Same assay, conditions: post-emergence, 336 h, TRZAS: wheat, spring (Triticum aestivum), 140 g ai/ha, 14 days after application, read-out: Visual Growth Reduction (%) 14 Days After Application, TRZAS
row,SMILES,pest or weed control at 140 g/ha [%]
1,"COC(=O)c1nc(-c2cc(N)c(C(F)(F)F)cc2Cl)ccc1Cl [F211, methyl 6-(5-amino-2-chloro-4-(trifluoromethyl)phenyl)-3-chloropicolinate]",0 to 29
2,"O=C(O)c1nc(-c2cc(F)c3c(c2)OC(F)(F)O3)ccc1Cl [F368, 3-Chloro-6-(2,2,7-trifluorobenzo[d][1,3]dioxol-5-yl)picolinic acid]",0 to 29
3,"COC(=O)c1nc(-c2ccc(F)cc2)c(F)cc1Cl [F227, Methyl 3-chloro-5-fluoro-6-(4-fluorophenyl) picolinate]",0 to 29

# Same assay, conditions: post-emergence, 336 h, blackgrass (Alopecurus myosuroides), 14 Days After Application, 140 g ai/ha, read-out: Visual Growth Reduction (%) ALOMY
row,SMILES,pest or weed control at 140 g/ha [%]
1,"COC(=O)c1nc(-c2cc(N)c(C(F)(F)F)cc2Cl)ccc1Cl [F211, methyl 6-(5-amino-2-chloro-4-(trifluoromethyl)phenyl)-3-chloropicolinate]",0 to 29
2,"O=C(O)c1nc(-c2cc(F)c3c(c2)OC(F)(F)O3)ccc1Cl [F368, 3-Chloro-6-(2,2,7-trifluorobenzo[d][1,3]dioxol-5-yl)picolinic acid]",0 to 29
3,"COC(=O)c1nc(-c2ccc(F)cc2)c(F)cc1Cl [F227, Methyl 3-chloro-5-fluoro-6-(4-fluorophenyl) picolinate]",0 to 29

# Same assay, conditions: post-emergence, 336 h, canada thistle (Cirsium arvense), 14 Days After Application, 140 g ai/ha, read-out: Visual Growth Reduction (%) CIRAR
row,SMILES,pest or weed control at 140 g/ha [%]
1,"COC(=O)c1nc(-c2cc(N)c(C(F)(F)F)cc2Cl)ccc1Cl [F211, methyl 6-(5-amino-2-chloro-4-(trifluoromethyl)phenyl)-3-chloropicolinate]",85 to 94
2,"O=C(O)c1nc(-c2cc(F)c3c(c2)OC(F)(F)O3)ccc1Cl [F368, 3-Chloro-6-(2,2,7-trifluorobenzo[d][1,3]dioxol-5-yl)picolinic acid]",0 to 29
3,"COC(=O)c1nc(-c2ccc(F)cc2)c(F)cc1Cl [F227, Methyl 3-chloro-5-fluoro-6-(4-fluorophenyl) picolinate]",30 to 44

# Same assay, conditions: post-emergence, 336 h, crabgrass (Digitaria sanguinalis), 14 Days After Application, 140 g ai/ha, read-out: Visual Growth Reduction (%) DIGSA
row,SMILES,pest or weed control at 140 g/ha [%]
1,"COC(=O)c1nc(-c2cc(N)c(C(F)(F)F)cc2Cl)ccc1Cl [F211, methyl 6-(5-amino-2-chloro-4-(trifluoromethyl)phenyl)-3-chloropicolinate]",30 to 44
2,"O=C(O)c1nc(-c2cc(F)c3c(c2)OC(F)(F)O3)ccc1Cl [F368, 3-Chloro-6-(2,2,7-trifluorobenzo[d][1,3]dioxol-5-yl)picolinic acid]",75 to 84
3,"COC(=O)c1nc(-c2ccc(F)cc2)c(F)cc1Cl [F227, Methyl 3-chloro-5-fluoro-6-(4-fluorophenyl) picolinate]",30 to 44

# Same assay, conditions: post-emergence, 336 h, lambsquarters (Chenopodium album), 14 Days After Application, 140 g ai/ha, read-out: Visual Growth Reduction (%) CHEAL
row,SMILES,pest or weed control at 140 g/ha [%]
1,"COC(=O)c1nc(-c2cc(N)c(C(F)(F)F)cc2Cl)ccc1Cl [F211, methyl 6-(5-amino-2-chloro-4-(trifluoromethyl)phenyl)-3-chloropicolinate]",95 to 100
2,"O=C(O)c1nc(-c2cc(F)c3c(c2)OC(F)(F)O3)ccc1Cl [F368, 3-Chloro-6-(2,2,7-trifluorobenzo[d][1,3]dioxol-5-yl)picolinic acid]",0 to 29
3,"COC(=O)c1nc(-c2ccc(F)cc2)c(F)cc1Cl [F227, Methyl 3-chloro-5-fluoro-6-(4-fluorophenyl) picolinate]",75 to 84

# Same assay, conditions: post-emergence, 336 h, redroot pigweed (Amaranthus retroflexus), 14 Days After Application, 140 g ai/ha, read-out: Visual Growth Reduction (%) AMARE
row,SMILES,pest or weed control at 140 g/ha [%]
1,"COC(=O)c1nc(-c2cc(N)c(C(F)(F)F)cc2Cl)ccc1Cl [F211, methyl 6-(5-amino-2-chloro-4-(trifluoromethyl)phenyl)-3-chloropicolinate]",85 to 94
2,"O=C(O)c1nc(-c2cc(F)c3c(c2)OC(F)(F)O3)ccc1Cl [F368, 3-Chloro-6-(2,2,7-trifluorobenzo[d][1,3]dioxol-5-yl)picolinic acid]",0 to 29
3,"COC(=O)c1nc(-c2ccc(F)cc2)c(F)cc1Cl [F227, Methyl 3-chloro-5-fluoro-6-(4-fluorophenyl) picolinate]",0 to 29

# Same assay, conditions: post-emergence, 336 h, wild oat (Avena fatua), 14 Days After Application, 140 g ai/ha, read-out: Visual Growth Reduction (%) AVEFA
row,SMILES,pest or weed control at 140 g/ha [%]
1,"COC(=O)c1nc(-c2cc(N)c(C(F)(F)F)cc2Cl)ccc1Cl [F211, methyl 6-(5-amino-2-chloro-4-(trifluoromethyl)phenyl)-3-chloropicolinate]",0 to 29
2,"O=C(O)c1nc(-c2cc(F)c3c(c2)OC(F)(F)O3)ccc1Cl [F368, 3-Chloro-6-(2,2,7-trifluorobenzo[d][1,3]dioxol-5-yl)picolinic acid]",0 to 29
3,"COC(=O)c1nc(-c2ccc(F)cc2)c(F)cc1Cl [F227, Methyl 3-chloro-5-fluoro-6-(4-fluorophenyl) picolinate]",0 to 29

# Same assay, conditions: post-emergence, 336 h, yellow nutsedge (Cyperus esculentus), 14 Days After Application, 140 g ai/ha, read-out: Visual Growth Reduction (%) CYPES
row,SMILES,pest or weed control at 140 g/ha [%]
1,"COC(=O)c1nc(-c2cc(N)c(C(F)(F)F)cc2Cl)ccc1Cl [F211, methyl 6-(5-amino-2-chloro-4-(trifluoromethyl)phenyl)-3-chloropicolinate]",0 to 29
2,"O=C(O)c1nc(-c2cc(F)c3c(c2)OC(F)(F)O3)ccc1Cl [F368, 3-Chloro-6-(2,2,7-trifluorobenzo[d][1,3]dioxol-5-yl)picolinic acid]",0 to 29
3,"COC(=O)c1nc(-c2ccc(F)cc2)c(F)cc1Cl [F227, Methyl 3-chloro-5-fluoro-6-(4-fluorophenyl) picolinate]",0 to 29
